Measured values as given in paper PMC8694140, “Synthesis and photobiological applications of naphthalimide–benzothiazole conjugates: cytotoxicity and topoisomerase IIα inhibition” (RSC Advances, 2021).
Read-outs that look alike come from different tables or passages of the source.

Assays:
[1] = target: T1, human serum albumin (HSA) (Homo sapiens, UniProt P02768); assay: HSA fluorescence quenching (Stern–Volmer, modified Stern–Volmer, van't Hoff); format: binding; details: 308 K
[2] = target: T1, human serum albumin (HSA); assay: Excited-state fluorescence lifetime of HSA; format: binding; details: compound 7 μM
Method: A fluorescence lifetime experiment was performed to discover the quenching mechanism of compounds 12 and 13 for interactions with HSA. The decay lifetime (τ) generally remains unaltered in ground state quenching while it gets changed in excited state quenching.[46,47] The fluorescence lifetime spectrum of HSA (7 μM) was performed upon increasing concentrations of compounds 12 and 13 (0–70 μM) (Fig. S65 ^†). […] Therefore, it can conclude that the fluorescence quenching of HSA by compounds 12 and 13 was characterized as a static quenching and thus formed a stable complex with HSA at the ground state.
Time-resolved fluorescence was recorded by taking a fixed amount of HSA (10 μM) with incremental additions of compounds (12 and 13) ([…]) by maintaining the ratio of HSA : compound = 1 : 0, 1 : 1, 1 : 5 and 1 : 10. The spectra were recorded at 345 nm emission wavelength in phosphate buffer of pH 7.4 at 298 K. To determine the average fluorescence lifetime (τ), the following eqn (7) was used.7 τ = ∑τiαiwhere τi and αi denote decay time and relative amplitude, respectively.

[3] = system: MCF7 (breast) human cancer cell line; assay: MTT cytotoxicity assay, MCF7; format: cell-based; details: Homo sapiens, MCF7, 48 h
Method: (§1) Human malignant cell lines, i.e., MCF7 (breast), HeLa (cervix), and A549 (lung), as well as non-cancerous human cell line Hek293 (kidney), were cultured using the Ham's media or DMEM having 10% FBS, […] streptomycin, 100 U ml^−1 penicillin, and 50 mM glutamine. For seeding of cells, 96 well plates were used, maintaining the density of […] cells per well with the help of DMEM as a media having 10% FBS cells. Then, seeded cells were incubated in an incubator having a 5% CO2 supply at 37 °C. Compounds were added to the wells at 1, 10, and 100 μM concentrations, and cells were incubated for 48 h at 37 °C and then added 10 μl of MTT to each well prepared from 5 mg ml^−1 stock solution using 1 × PBS buffer and were incubated for 4 h at 37 °C in the dark. DMSO (100 μl) was used to dissolve the formazan crystals. To determine the concentration of formazan, the crystal absorbance difference was recorded at 570 nm. The percentage of relative cell toxicity was calculated by using the following eqn (1):1 [drawing 1]

[4] = system: A549 (lung) human cancer cell line; assay: MTT cytotoxicity assay, A549; format: cell-based; details: Homo sapiens, A549, 48 h
Method: as §1

[5] = target: T1, human serum albumin (HSA); assay: HSA fluorescence quenching (Stern–Volmer, modified Stern–Volmer, van't Hoff); format: binding; details: for Kd: read-out: K b (binding constant, modified Stern–Volmer) (converted); for quenching of emission of HSA at 347 nm: HSA 10 μM, compound up to 33 μM, λex 280 nm; for ΔH of HSA binding / ΔS of HSA binding: van't Hoff plot, 298–318 K
Method: The binding of compounds to HSA can affect the fluorescence of these fluorophores.[34–36] […] Incremental addition of compounds 12 and 13 (33 μM) led to good quenching (90–95%) of emission of HSA at 347 nm (Fig. 5, S58, and S59 ^†), which indeed indicated the binding of compounds to HSA. Fluorescence quenching data have been analyzed using the Stern–Volmer equation eqn (3)[38] at three different temperatures, i.e., 298 K, […], and 318 K, where Stern–Volmer plots were obtained (Fig. S60 and S61 ^†). Good linearity of plots was observed having a correlation coefficient (R) ≥ 0.9396 throughout all the experiments. The values of the Stern–Volmer quenching constant (KSV), a measure of fluorescence quenching efficiency of the analyte, were calculated from these plots and are reported in Table 2. The fluorescence quenching mechanism, whether dynamic or static quenching, can be investigated using the dependency of KSV values on temperature. […] Thus, the detected quenching in fluorescence of HSA on the addition of compounds 12 and 13 appears as a result of complex formation between compound and HSA. […] Thus, in the present study, the static quenching phenomenon has occurred in the quenching process for represented HSA–compound systems.
To record the emission spectra, a fixed amount of HSA (10 μM) was titrated with increasing concentration of compounds 12 and 13 (33 μM) in phosphate buffer of pH 7.4 at 298 K, 308 K, and 318 K. All spectra were recorded in the range of 200–800 nm at excitation wavelength 280 nm and a constant slit width was used for excitation and emission throughout the experiments.
To determine the quenching constant, following Stern–Volmer eqn (3) was used.3 [drawing 3] where, F0 and F denote the emission intensity of HSA in free form and the presence of compounds 12 and 13, respectively. The plots of F0/F versus [compound] were used to determine the Stern–Volmer quenching constants (KSV) and bimolecular quenching constants (Kq).
Further to determine the binding constants (Kb) and the average number of binding sites (n), the following modified Stern–Volmer eqn (4) was used.4 [drawing 4] where F0 and F are the same as in eqn (3). The values of Kb and n were determined from intercept and slope, respectively, as log{(F0 − F)/F versus log[compound]} plots.
The thermodynamic parameters such as the change in enthalpy (ΔH) and change in entropy (ΔS) were determined by following the van't Hoff eqn (5):5 [drawing 5] R and T denote the gas constant and absolute temperature, respectively.
The change in free energy (ΔG) for various temperatures was determined by the following eqn (6):6 ΔG = ΔH − TΔS

[6] = target: human type IIa topoisomerase (Homo sapiens, UniProt P11388); assay: Relaxation assay of human topoisomerase IIa (supercoiled pHOT1 plasmid DNA, agarose gel); format: biochemical; details: compared with etoposide (Fig. S56)
Sequence of human type IIa topoisomerase (P11388 whole entry): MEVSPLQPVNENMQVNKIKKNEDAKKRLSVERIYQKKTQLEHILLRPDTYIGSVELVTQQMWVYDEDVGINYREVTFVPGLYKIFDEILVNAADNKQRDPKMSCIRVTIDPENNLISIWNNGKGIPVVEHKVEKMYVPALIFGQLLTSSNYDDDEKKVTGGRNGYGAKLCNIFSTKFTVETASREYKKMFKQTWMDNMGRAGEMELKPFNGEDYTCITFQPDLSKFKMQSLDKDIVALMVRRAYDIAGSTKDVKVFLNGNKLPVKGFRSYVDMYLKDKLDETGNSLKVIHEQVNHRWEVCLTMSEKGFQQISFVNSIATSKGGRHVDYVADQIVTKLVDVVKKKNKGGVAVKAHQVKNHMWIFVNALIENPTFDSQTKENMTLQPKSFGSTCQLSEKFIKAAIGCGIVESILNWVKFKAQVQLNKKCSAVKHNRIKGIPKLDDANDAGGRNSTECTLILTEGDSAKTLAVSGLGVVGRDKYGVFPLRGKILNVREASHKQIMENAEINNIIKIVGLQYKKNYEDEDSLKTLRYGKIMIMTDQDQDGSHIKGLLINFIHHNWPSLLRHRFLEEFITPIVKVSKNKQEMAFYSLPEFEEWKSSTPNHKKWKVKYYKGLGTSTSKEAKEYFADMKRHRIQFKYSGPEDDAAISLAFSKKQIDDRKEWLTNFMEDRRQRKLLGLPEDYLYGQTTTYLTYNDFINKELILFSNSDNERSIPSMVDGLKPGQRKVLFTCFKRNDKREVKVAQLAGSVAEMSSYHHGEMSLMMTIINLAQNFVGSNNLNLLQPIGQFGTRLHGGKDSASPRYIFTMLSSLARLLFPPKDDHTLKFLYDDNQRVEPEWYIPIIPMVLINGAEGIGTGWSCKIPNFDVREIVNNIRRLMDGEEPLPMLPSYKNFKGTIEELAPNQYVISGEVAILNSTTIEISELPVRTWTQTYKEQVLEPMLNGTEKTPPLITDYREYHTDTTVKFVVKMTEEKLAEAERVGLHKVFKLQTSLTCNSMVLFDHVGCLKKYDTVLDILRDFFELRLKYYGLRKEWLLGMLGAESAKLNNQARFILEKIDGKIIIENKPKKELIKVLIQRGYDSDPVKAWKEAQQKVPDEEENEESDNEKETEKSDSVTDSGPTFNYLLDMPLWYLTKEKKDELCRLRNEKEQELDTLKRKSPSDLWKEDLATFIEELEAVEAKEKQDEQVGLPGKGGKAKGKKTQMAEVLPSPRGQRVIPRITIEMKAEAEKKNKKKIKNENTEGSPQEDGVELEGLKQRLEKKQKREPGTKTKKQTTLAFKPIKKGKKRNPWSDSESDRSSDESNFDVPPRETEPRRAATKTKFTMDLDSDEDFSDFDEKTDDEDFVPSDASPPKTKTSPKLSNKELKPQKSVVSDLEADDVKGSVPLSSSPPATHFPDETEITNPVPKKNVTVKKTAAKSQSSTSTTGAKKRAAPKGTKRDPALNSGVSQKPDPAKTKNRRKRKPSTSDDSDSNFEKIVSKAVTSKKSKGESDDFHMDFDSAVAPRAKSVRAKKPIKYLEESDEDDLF
Method: The concentrations 0.1, 0.5, 1, 1.5, 2, and 3 μM were taken for both compounds (Fig. 3).
The assay of human type IIa topoisomerase mediated relaxation of supercoiled plasmid DNA was performed using reaction buffer (20 μl) (5 mM dithiothreitol, 0.5 M Tris–HCl, pH 8.0, 20 mM ATP, 1.50 M NaCl, 300 μg ml^−1 BSA, and 100 mM MgCl2) having supercoiled pHOT1 plasmid DNA (500 ng) and human type IIa topoisomerase enzyme (4 units). The reaction mixtures were incubated for 30 min at 37 °C, followed by adding 10% sodium dodecyl sulfate (2 μl) to stop the reaction. Added 0.5 mg ml^−1 proteinase K (1 μl) to the reaction mixture and allowed to incubate for 15 min at 37 °C. Then, added loading buffer, i.e., 0.25% bromophenol blue and 50% glycerol (1 μl) to the reaction mixture and run on 1% agarose gel electrophoresis using TAE buffer (1.14 ml acetic acid, and 0.37 g EDTA pH 8.1, and 100 ml of 10× stock solution–4.8 g of Tris base). The gel containing DNA was stained with ethidium bromide, washed, and photographed using UV light.

[7] = target: T1, human serum albumin (HSA); assay: Excited-state fluorescence lifetime of HSA; format: binding

T1 sequence (P02768 25-609): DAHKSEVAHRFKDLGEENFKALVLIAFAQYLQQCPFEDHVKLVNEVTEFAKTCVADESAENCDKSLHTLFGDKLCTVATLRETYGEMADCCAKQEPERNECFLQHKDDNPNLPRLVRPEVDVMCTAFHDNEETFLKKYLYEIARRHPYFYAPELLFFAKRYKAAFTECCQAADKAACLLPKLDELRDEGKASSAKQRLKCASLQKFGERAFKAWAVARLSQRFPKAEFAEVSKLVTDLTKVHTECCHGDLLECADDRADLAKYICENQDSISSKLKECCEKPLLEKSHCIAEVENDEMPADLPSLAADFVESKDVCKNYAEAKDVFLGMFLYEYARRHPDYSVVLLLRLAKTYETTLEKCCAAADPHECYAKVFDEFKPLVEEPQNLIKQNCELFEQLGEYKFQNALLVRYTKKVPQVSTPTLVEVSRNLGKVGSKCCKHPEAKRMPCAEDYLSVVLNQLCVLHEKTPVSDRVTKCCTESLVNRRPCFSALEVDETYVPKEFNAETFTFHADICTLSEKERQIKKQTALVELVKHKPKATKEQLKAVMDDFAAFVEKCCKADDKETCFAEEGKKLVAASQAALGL

With C#CCN1C(=O)c2cccc3c(-c4ccc5c(c4)c(-c4nc6ccccc6s4)cn5CC=C)ccc(c23)C1=O [Compound 13, 6-(1-Allyl-3-(benzo[d]thiazol-2-yl)-1H-indol-5-yl)-2-(prop-2-yn-1-yl)-1H-benzo[de]isoquinoline-1,3(2H)-dione] the “K SV (Stern–Volmer quenching constant)” value [1] was 2.38 10^6 M^−1, the “K q (bimolecular quenching rate constant)” value [1] was 2.38 10^14 M^−1 s^−1 and the “n (average number of binding sites)” value [1] was 1.07. The “ΔG of HSA binding” value [1] was -7.93 kJ/M, the “α 1 of HSA fluorescence decay” value [2] was 0.41 and the “α 2 of HSA fluorescence decay” value [2] was 0.23. For the same compound, the “α 3 of HSA fluorescence decay” value [2] was 0.36, the “τ 3 of HSA fluorescence decay” value [2] was 0.84 ns and the “τ (average fluorescence lifetime of HSA)” value [2] was 3.25 ns. For the same compound, the IC50 [3] was 3.49 ± 0.12 µM, the IC50 [4] was 0.31 ± 0.01 µM and the “K SV (Stern–Volmer quenching constant)” value ([5]; 298 K) was 2.58 10^6 M^−1. For the same compound, the “K q (bimolecular quenching rate constant)” value ([5]; 298 K) was 2.58 10^14 M^−1 s^−1, the “n (average number of binding sites)” value ([5]; 298 K) was 1.17 and the “ΔG of HSA binding” value ([5]; 298 K) was -8.37 kJ/M. For the same compound, the Kd ([5]; 298 K) was 662 nM, the Kd ([5]; 308 K) was 2780 nM and the “K SV (Stern–Volmer quenching constant)” value ([5]; 318 K) was 0.30 10^6 M^−1. For the same compound, the “K q (bimolecular quenching rate constant)” value ([5]; 318 K) was 0.30 10^14 M^−1 s^−1, the “n (average number of binding sites)” value ([5]; 318 K) was 1.00 and the “ΔG of HSA binding” value ([5]; 318 K) was -7.49 kJ/M. For the same compound, the Kd ([5]; 318 K) was 6670 nM, the “quenching of emission of HSA at 347 nm” value [5] was 90–95% and the “ΔH of HSA binding” value [5] was -21.41 kJ/M. The “ΔS of HSA binding” value [5] was −43.76 J M^−1 K^−1, the “inhibition of topoisomerase II relaxation” value (“inhibition” for short) ([6]; 1 μM) was “partially inhibitor” and the “inhibition” value ([6]; 5, 10 and 50 μM) was “significant and active inhibitors”. The “τ 1 of HSA fluorescence decay” value ([7]; compound 7 μM) was 3.19 ns, the “τ 2 of HSA fluorescence decay” value ([7]; compound 7 μM) was 7.17 ns and the “α 1 of HSA fluorescence decay” value ([7]; compound 35 μM) was 0.39. For the same compound, the “α 2 of HSA fluorescence decay” value ([7]; compound 35 μM) was 0.24, the “α 3 of HSA fluorescence decay” value ([7]; compound 35 μM) was 0.37 and the “τ 1 of HSA fluorescence decay” value ([7]; compound 35 μM) was 3.12 ns. The “τ 2 of HSA fluorescence decay” value ([7]; compound 35 μM) was 6.97 ns, the “τ 3 of HSA fluorescence decay” value ([7]; compound 35 μM) was 0.85 ns and the “τ (average fluorescence lifetime of HSA)” value ([7]; compound 35 μM) was 3.19 ns. The “α 1 of HSA fluorescence decay” value ([7]; compound 70 μM) was 0.39, the “α 2 of HSA fluorescence decay” value ([7]; compound 70 μM) was 0.19 and the “α 3 of HSA fluorescence decay” value ([7]; compound 70 μM) was 0.41. The “τ 1 of HSA fluorescence decay” value ([7]; compound 70 μM) was 3.36 ns, the “τ 2 of HSA fluorescence decay” value ([7]; compound 70 μM) was 7.25 ns and the “τ 3 of HSA fluorescence decay” value ([7]; compound 70 μM) was 0.86 ns. For the same compound, the “τ (average fluorescence lifetime of HSA)” value ([7]; compound 70 μM) was 3.08 ns.

C=CCn1cc(-c2nc3ccccc3s2)c2cc(-c3ccc4c5c(cccc35)C(=O)N(CCO)C4=O)ccc21 [Compound 12, 6-(1-Allyl-3-(benzo[d]thiazol-2-yl)-1H-indol-5-yl)-2-(2-hydroxyethyl)-1H-benzo[de]isoquinoline-1,3(2H)-dione] was tested, and the “K SV (Stern–Volmer quenching constant)” value [1] was 5.19 10^6 M^−1, the “K q (bimolecular quenching rate constant)” value [1] was 5.19 10^14 M^−1 s^−1 and the “n (average number of binding sites)” value [1] was 1.17. For the same compound, the “ΔG of HSA binding” value [1] was -8.87 kJ/M, the “α 1 of HSA fluorescence decay” value [2] was 0.42 and the “α 2 of HSA fluorescence decay” value [2] was 0.20. For the same compound, the “α 3 of HSA fluorescence decay” value [2] was 0.38, the “τ 3 of HSA fluorescence decay” value [2] was 0.80 ns and the “τ (average fluorescence lifetime of HSA)” value [2] was 3.13 ns. The IC50 [3] was 3.81 ± 0.19 µM, the IC50 [4] was 0.14 ± 0.01 µM and the “K SV (Stern–Volmer quenching constant)” value ([5]; 298 K) was 10.46 10^6 M^−1. The “K q (bimolecular quenching rate constant)” value ([5]; 298 K) was 10.46 10^14 M^−1 s^−1, the “n (average number of binding sites)” value ([5]; 298 K) was 1.32 and the “ΔG of HSA binding” value ([5]; 298 K) was -9.27 kJ/M. For the same compound, the Kd ([5]; 298 K) was 136 nM, the Kd ([5]; 308 K) was 658 nM and the “K SV (Stern–Volmer quenching constant)” value ([5]; 318 K) was 1.27 10^6 M^−1. The “K q (bimolecular quenching rate constant)” value ([5]; 318 K) was 1.27 10^14 M^−1 s^−1, the “n (average number of binding sites)” value ([5]; 318 K) was 1.30 and the “ΔG of HSA binding” value ([5]; 318 K) was -8.46 kJ/M. The Kd ([5]; 318 K) was 1190 nM, the “quenching of emission of HSA at 347 nm” value [5] was 90–95% and the “ΔH of HSA binding” value [5] was -21.32 kJ/M. The “ΔS of HSA binding” value [5] was −40.44 J M^−1 K^−1, the “inhibition” value ([6]; 1 μM) was “partially inhibitor” and the “inhibition” value ([6]; 5, 10 and 50 μM) was “significant and active inhibitors”. For the same compound, the “τ 1 of HSA fluorescence decay” value ([7]; compound 7 μM) was 3.29 ns, the “τ 2 of HSA fluorescence decay” value ([7]; compound 7 μM) was 7.32 ns and the “α 1 of HSA fluorescence decay” value ([7]; compound 35 μM) was 0.41. The “α 2 of HSA fluorescence decay” value ([7]; compound 35 μM) was 0.18, the “α 3 of HSA fluorescence decay” value ([7]; compound 35 μM) was 0.40 and the “τ 1 of HSA fluorescence decay” value ([7]; compound 35 μM) was 3.37 ns. The “τ 2 of HSA fluorescence decay” value ([7]; compound 35 μM) was 7.34 ns, the “τ 3 of HSA fluorescence decay” value ([7]; compound 35 μM) was 0.86 ns and the “τ (average fluorescence lifetime of HSA)” value ([7]; compound 35 μM) was 3.09 ns. For the same compound, the “α 1 of HSA fluorescence decay” value ([7]; compound 70 μM) was 0.39, the “α 2 of HSA fluorescence decay” value ([7]; compound 70 μM) was 0.20 and the “α 3 of HSA fluorescence decay” value ([7]; compound 70 μM) was 0.41. For the same compound, the “τ 1 of HSA fluorescence decay” value ([7]; compound 70 μM) was 3.14 ns, the “τ 2 of HSA fluorescence decay” value ([7]; compound 70 μM) was 7.03 ns and the “τ 3 of HSA fluorescence decay” value ([7]; compound 70 μM) was 0.80 ns. The “τ (average fluorescence lifetime of HSA)” value ([7]; compound 70 μM) was 2.97 ns.
